Data as given in patent publication US20080227655A1, “Assessment of effect of an agent on a human biological condition using rodent gene expression panels” (priority 2006, published 2008).
Several values for one entry are separate records, joined by “and”; a condition that tells them apart may be missing. Identical values can stand only once.

Test system: custom murine 40-gene Precision Profile for Rheumatoid Arthritis, whole blood
Experiment: KRN (K/BxN) serum transfer induced arthritis model, whole blood gene expression by QPCR, vehicle or dexamethasone treatment
Assay type: in vivo, female BALB/c mice
Conditions: for ABCA1_M Normalized CT Value (Delta CT) / APAF1_M Normalized CT Value (Delta CT) / ARG2_M Normalized CT Value (Delta CT) / CASP1_M Normalized CT Value (Delta CT) / CASP3_M Normalized CT Value (Delta CT) / CCR3_M Normalized CT Value (Delta CT) / CD3Z_M Normalized CT Value (Delta CT) / CD8A_M Normalized CT Value (Delta CT) / CD14_M Normalized CT Value (Delta CT) / CD19_M Normalized CT Value (Delta CT) / CD86_M Normalized CT Value (Delta CT) / CSPG2_M Normalized CT Value (Delta CT) / F3_M Normalized CT Value (Delta CT) / HMOX1_M Normalized CT Value (Delta CT) / HSPA1A—M Normalized CT Value (Delta CT) / ICAM1—M Normalized CT Value (Delta CT) / IFI16—M Normalized CT Value (Delta CT) / IL1B_M Normalized CT Value (Delta CT) / IL10_M Normalized CT Value (Delta CT): whole blood
Experimental: Whole blood gene expression changes were evaluated in vehicle control and drug-treated murine subjects across two murine models of arthritis according to the following arthritis models:
KRN Transgenic Mouse (K/B×N): K/B×N serum from transgenic mouse used to induce arthritis in female BALB/c mice (n=54). Collagen Induced Arthritis (CIA): Bovine type II collagen used to induce arthritis in male DBA/1 mice (n=54).
In addition, naïve, untreated animal groups at baseline and terminal day were included to control for potential age-related changes in gene expression over the extended study periods. Animal groups, time-points, and treatment schedules are summarized in Tables 20A and 20B, respectively.
Whole blood samples from animals were collected by retro-orbital bleed at selected time-points in accordance with the arthritis study schemas described in […], and transferred into sample collection tubes containing a 1.5× lysis solution and RPMI. Samples were processed into total RNA and cDNA. […] It was anticipated from these murine models would provide a better understanding of the relevant molecular response of arthritis induction and their potential correlation to the human disease condition.
Normal murine subject reference values (represented as normalized Ct or ΔCt values) were established for male DBA/1 mice (n=6 for the CIA study arm) and female BALB/c mice (n=6 for the KRN study arm). In both arms of the study, gene expression response of normal (naïve, non-immunized and untreated) murine subjects were evaluated in groups of 6 each at day 0 and day 60 for the CIA study arm, and at day 0 and day 21 for the KRN study arm (see Tables 20A and 20B).
Gene expression responses for the arthritis-induced murine model were evaluated for untreated mice at day 3 and vehicle-treated mice at days 7, 14 and 21 to characterize disease progression.

[1] = KRN Day 14, Dex-treated, individual murine subject
[2] = KRN Day 14, Dex-treated, individual murine subject, listed as Dex
[3] = KRN Day 14 Dex, individual mouse, listed as Dex
[4] = KRN Day 21, Dex-treated, group Average
[5] = KRN Day 21, Dex-treated, individual murine subject, listed as Dex
[6] = KRN Day 21 Dex, individual mouse, listed as Dex

C[C@@H]1C[C@H]2[C@@H]3CCC4=CC(=O)C=C[C@]4(C)[C@@]3(F)[C@@H](O)C[C@]2(C)[C@@]1(O)C(=O)CO [Dexamethasone]
Normalized CT Value (Delta CT) TLR4_M [1]: 18.49
Normalized CT Value (Delta CT) TNFSF5—M [1]: 19.61
Normalized CT Value (Delta CT) TNF_M [1]: 20.58
Normalized CT Value (Delta CT) VEGF_M [1]: 20.76
Normalized CT Value (Delta CT) IL1RAP_M [2]: 18.49 and 19.00 and 18.48 and 18.13 and 18.59 and 18.81
Normalized CT Value (Delta CT) IL1RN—M [2]: 17.70 and 17.88 and 17.80 and 17.59 and 17.72 and 17.52
Normalized CT Value (Delta CT) IL6_M [2]: 25.39 and 25.69 and 25.54 and 25.34 and 25.89 and 25.05
Normalized CT Value (Delta CT) JUN_M [2]: 19.76 and 19.88 and 19.77 and 19.35 and 19.58 and 19.68
Normalized CT Value (Delta CT) MEF2C—M [2]: 20.59 and 19.97 and 20.74 and 19.83 and 20.88 and 19.95
Normalized CT Value (Delta CT) MMP9—M [2]: 14.51 and 14.33 and 14.28 and 14.07 and 14.70 and 14.83
Normalized CT Value (Delta CT) NFKB1—M [2]: 17.37 (2×) and 17.12 and 17.30 and 16.77 and 17.79
Normalized CT Value (Delta CT) PADI4—M [2]: 18.74 and 18.78 and 18.81 and 18.39 and 18.98 and 19.03
Normalized CT Value (Delta CT) PLA2G7—M [2]: 15.31 and 15.29 and 15.04 and 14.93 and 15.33 and 15.36
ABCA1_M Normalized CT Value (Delta CT) (KRN Day 14 Dex, group Average): 18.74
APAF1_M Normalized CT Value (Delta CT) (KRN Day 14 Dex, group Average): 19.47
ARG2_M Normalized CT Value (Delta CT) (KRN Day 14 Dex, group Average): 17.37
CASP1_M Normalized CT Value (Delta CT) (KRN Day 14 Dex, group Average): 19.02
CASP3_M Normalized CT Value (Delta CT) (KRN Day 14 Dex, group Average): 17.77
CCR3_M Normalized CT Value (Delta CT) (KRN Day 14 Dex, group Average): 19.21
CD3Z_M Normalized CT Value (Delta CT) (KRN Day 14 Dex, group Average): 17.27
CD8A_M Normalized CT Value (Delta CT) (KRN Day 14 Dex, group Average): 18.32
CD14_M Normalized CT Value (Delta CT) (KRN Day 14 Dex, group Average): 19.94
CD19_M Normalized CT Value (Delta CT) (KRN Day 14 Dex, group Average): 17.52
CD86_M Normalized CT Value (Delta CT) (KRN Day 14 Dex, group Average): 23.30
CSPG2_M Normalized CT Value (Delta CT) (KRN Day 14 Dex, group Average): 20.94
F3_M Normalized CT Value (Delta CT) (KRN Day 14 Dex, group Average): 23.16
HMOX1_M Normalized CT Value (Delta CT) (KRN Day 14 Dex, group Average): 18.18
HSPA1A—M Normalized CT Value (Delta CT) (KRN Day 14 Dex, group Average): 21.59
ICAM1—M Normalized CT Value (Delta CT) (KRN Day 14 Dex, group Average): 19.42
IFI16—M Normalized CT Value (Delta CT) (KRN Day 14 Dex, group Average): 17.45
IL1B_M Normalized CT Value (Delta CT) (KRN Day 14 Dex, group Average): 14.29
IL10_M Normalized CT Value (Delta CT) (KRN Day 14 Dex, group Average): 25.56
ABCA1_M Normalized CT Value (Delta CT) [3]: 18.85 and 18.64 and 18.31 and 18.46 and 19.46 and 18.75
APAF1_M Normalized CT Value (Delta CT) [3]: 19.78 and 19.62 and 19.16 and 19.37 and 19.43
ARG2_M Normalized CT Value (Delta CT) [3]: 17.30 and 17.84 and 17.05 and 16.89 and 17.70 and 17.43
CASP1_M Normalized CT Value (Delta CT) [3]: 19.00 and 18.87 and 18.99 and 19.15 and 19.23 and 18.90
CASP3_M Normalized CT Value (Delta CT) [3]: 17.98 and 17.63 and 17.87 and 17.16 and 17.93 and 18.06
CCR3_M Normalized CT Value (Delta CT) [3]: 19.56 and 18.34 and 19.23 and 18.45 and 19.90 and 19.79
CD3Z_M Normalized CT Value (Delta CT) [3]: 17.27 and 17.38 and 17.23 and 16.92 and 18.16 and 16.68
CD8A_M Normalized CT Value (Delta CT) [3]: 18.76 and 18.05 and 18.11 and 17.83 and 19.21 and 17.94
CD14_M Normalized CT Value (Delta CT) [3]: 19.50 and 20.04 and 19.93 and 20.22 and 19.63 and 20.29
CD19_M Normalized CT Value (Delta CT) [3]: 17.84 and 17.32 (2×) and 18.33 and 17.39
CD86_M Normalized CT Value (Delta CT) [3]: 23.63 and 23.21 and 23.28 and 22.53 and 23.60 and 23.56
CSPG2_M Normalized CT Value (Delta CT) [3]: 21.74 and 21.15 and 20.43 and 21.79 and 19.79 and 20.71
F3_M Normalized CT Value (Delta CT) [3]: 22.18 and 23.66 and 21.85 and 24.55 and 21.66 and 25.05
HMOX1_M Normalized CT Value (Delta CT) [3]: 17.83 and 18.22 and 17.82 and 18.09 and 18.31 and 18.81
HSPA1A—M Normalized CT Value (Delta CT) [3]: 21.44 and 22.20 and 21.91 and 21.55 and 20.95 and 21.51
ICAM1—M Normalized CT Value (Delta CT) [3]: 19.58 and 19.31 and 19.39 and 19.05 and 19.89 and 19.28
IFI16—M Normalized CT Value (Delta CT) [3]: 17.64 and 17.26 and 17.87 and 16.81 and 18.04 and 17.08
IL1B_M Normalized CT Value (Delta CT) [3]: 14.31 and 14.48 (2×) and 14.19 and 14.00 and 14.25
IL10_M Normalized CT Value (Delta CT) [3]: 25.62 and 25.82 and 25.58 and 25.54 and 25.73 and 25.10
Normalized CT Value (Delta CT) IL1RAP_M [4]: 19.02
Normalized CT Value (Delta CT) IL1RN—M [4]: 18.13
Normalized CT Value (Delta CT) IL6_M [4]: 25.28
Normalized CT Value (Delta CT) JUN_M [4]: 20.06
Normalized CT Value (Delta CT) MEF2C—M [4]: 20.90
Normalized CT Value (Delta CT) MMP9—M [4]: 15.04
Normalized CT Value (Delta CT) NFKB1—M [4]: 17.69
Normalized CT Value (Delta CT) PADI4—M [4]: 18.92
Normalized CT Value (Delta CT) PLA2G7—M [4]: 15.50
Normalized CT Value (Delta CT) IL1RAP_M [5]: 19.08 and 19.03 and 18.86 and 19.29 and 18.97 and 18.89
Normalized CT Value (Delta CT) IL1RN—M [5]: 17.95 (2×) and 18.43 and 17.84 and 18.46 and 18.15
Normalized CT Value (Delta CT) IL6_M [5]: 25.40 and 25.42 and 24.75 and 25.06 and 25.35 and 25.72
Normalized CT Value (Delta CT) JUN_M [5]: 20.06 and 20.45 and 20.53 and 19.72 and 19.52
Normalized CT Value (Delta CT) MEF2C—M [5]: 21.26 (2×) and 20.26 and 21.57 and 20.41 and 20.64
Normalized CT Value (Delta CT) MMP9—M [5]: 15.23 and 14.73 and 15.36 and 15.08 and 14.79
Normalized CT Value (Delta CT) NFKB1—M [5]: 17.74 and 18.12 and 17.25 and 18.27 and 17.28 and 17.46
Normalized CT Value (Delta CT) PADI4—M [5]: 19.00 and 18.36 and 19.37 and 18.97 and 19.13 and 18.69
Normalized CT Value (Delta CT) PLA2G7—M [5]: 15.27 and 15.70 and 15.34 and 15.67 and 15.86 and 15.15
ABCA1_M Normalized CT Value (Delta CT) (KRN Day 21 Dex, group Average): 19.00
APAF1_M Normalized CT Value (Delta CT) (KRN Day 21 Dex, group Average): 19.85
ARG2_M Normalized CT Value (Delta CT) (KRN Day 21 Dex, group Average): 17.59
CASP1_M Normalized CT Value (Delta CT) (KRN Day 21 Dex, group Average): 19.48
CASP3_M Normalized CT Value (Delta CT) (KRN Day 21 Dex, group Average): 18.35
CCR3_M Normalized CT Value (Delta CT) (KRN Day 21 Dex, group Average): 19.66
CD3Z_M Normalized CT Value (Delta CT) (KRN Day 21 Dex, group Average): 17.38
CD14_M Normalized CT Value (Delta CT) (KRN Day 21 Dex, group Average): 20.44
CD19_M Normalized CT Value (Delta CT) (KRN Day 21 Dex, group Average): 17.72
CD86_M Normalized CT Value (Delta CT) (KRN Day 21 Dex, group Average): 23.73
ABCA1_M Normalized CT Value (Delta CT) [6]: 19.52 and 19.29 and 18.57 and 19.09 and 18.61 and 18.92
APAF1_M Normalized CT Value (Delta CT) [6]: 19.76 and 19.88 and 19.81 and 20.29 and 19.46 and 19.93
ARG2_M Normalized CT Value (Delta CT) [6]: 17.45 and 17.78 and 17.56 and 17.29 and 18.09 and 17.36
CASP1_M Normalized CT Value (Delta CT) [6]: 19.34 and 19.90 and 19.57 and 19.28 and 19.50 and 19.31
CASP3_M Normalized CT Value (Delta CT) [6]: 18.21 and 18.52 (2×) and 18.24 and 18.02 and 18.60
CCR3_M Normalized CT Value (Delta CT) [6]: 19.82 and 19.72 and 19.20 and 19.52 and 20.10 and 19.60
CD3Z_M Normalized CT Value (Delta CT) [6]: 17.32 and 17.40 and 17.14 and 17.66 and 17.04 and 17.71
CD14_M Normalized CT Value (Delta CT) [6]: 20.25 and 21.24 and 20.59 and 20.09 and 20.44 and 20.03
CD19_M Normalized CT Value (Delta CT) [6]: 18.44 and 17.98 and 17.64 and 18.11
CD86_M Normalized CT Value (Delta CT) [6]: 23.89 and 23.61 and 23.63 and 24.02 and 23.14 and 24.11
